# Assays:
# PKCε = biological target: T1, PKCε (Homo sapiens, UniProt Q02156); assay: PKC assay with purified PKCε; format: biochemical
# T1 construct: purchased Calbiochem
# T1 sequence (Q02156 1-737): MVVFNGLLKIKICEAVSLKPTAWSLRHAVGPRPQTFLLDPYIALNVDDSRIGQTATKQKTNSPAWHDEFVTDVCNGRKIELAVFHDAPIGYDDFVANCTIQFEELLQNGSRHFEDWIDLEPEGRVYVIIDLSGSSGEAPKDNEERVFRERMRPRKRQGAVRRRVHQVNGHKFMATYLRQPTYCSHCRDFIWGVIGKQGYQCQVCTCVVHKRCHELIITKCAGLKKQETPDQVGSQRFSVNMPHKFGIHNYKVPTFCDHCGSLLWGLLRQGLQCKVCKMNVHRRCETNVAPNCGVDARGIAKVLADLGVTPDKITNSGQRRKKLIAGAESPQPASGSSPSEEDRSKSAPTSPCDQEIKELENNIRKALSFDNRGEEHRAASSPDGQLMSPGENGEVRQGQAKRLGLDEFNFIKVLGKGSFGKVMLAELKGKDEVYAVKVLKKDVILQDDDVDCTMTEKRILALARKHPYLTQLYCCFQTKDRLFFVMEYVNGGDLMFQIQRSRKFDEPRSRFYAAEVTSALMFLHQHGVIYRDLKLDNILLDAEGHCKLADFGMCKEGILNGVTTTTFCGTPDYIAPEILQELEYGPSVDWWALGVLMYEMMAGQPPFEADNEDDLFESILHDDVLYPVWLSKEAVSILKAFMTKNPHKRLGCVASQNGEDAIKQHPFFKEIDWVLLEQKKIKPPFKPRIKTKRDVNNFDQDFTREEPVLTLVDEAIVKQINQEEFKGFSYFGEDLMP
# Method: PKC assay. […] 0.5 micro Ci[^γ32P]ATP was added. […] The reaction was stopped by spotting the reaction mixtures on 1×2 cm strips of cellulose phosphate paper (Whatman P81) and immediately washing twice for 1 hr in 0.5% H3PO4. The cellulose phosphate strips were counted in a scintillation counter. In some experiments, phosphatidylserine, diacylglycerol, and/or calcium were removed. […]
# To determine their PKC isozyme specificity, fatty acid derivatives were preincubated with purified PKC for five minutes and the PKC activity was measured radiometrically.
# Aβ [1] = assay: Aβ production in N2a neuroblastoma cells transfected with human APPSwe/PSID; format: cell-based, mouse; settings: 24 hours
# Method: (§1) Cell culture. Rat hippocampal H19-7/IGF-IR cells (ATCC, Manassas, Va.) were plated onto poly-L-lysine coated plates and grown at 35° C. in DMEM/10% FCS for several days until about 50% coverage was obtained. The cells were then induced to differentiate into a neuronal phenotype by replacing the medium with 5 ml N2 medium containing 10 ng/ml basic fibroblast growth factor at 39° C. and grown in T-75 flasks at 37° C. Human SH-SY5Y neuroblastoma cells (ATCC) were cultured in 45% F12K/45% MEM/10% FCS. Mouse N2A neuroblastoma cells were cultured in DMEM/10% FCS without glutamine. Rat hippocampal neurons from 18-day-old embryonic Sprague Dawley rat brains were plated on 12- or 96-well plates coated with poly-D-lysine (Sigma-Aldrich, St. Louis, Mo.) in B-27 neurobasal medium containing 0.5 mM glutamine and 25 μM glutamate (Invitrogen, Carlsbad, Calif.) and cultured for three days in the medium without glutamate. The neuronal cells were grown under 5% CO2 in an incubator maintained at 37° C. for 14 days.
# (§2) Aβ Measurement and Cell Viability Assay. Aβ was measured using an Aβ 1-42 human fluorimetric ELISA kit (Invitrogen) according to the manufacturer's instructions. Results were measured in a Biotek Synergy HT microplate reader. AlamarBlue and CyQuant NF (Invitrogen) according to the manufacturer's instructions.
# To measure the effects of PKCε activation on Aβ production, mouse neuro2a (N2a) neuroblastoma cells transfected with human APPSwe/PSID were used, which produce large quantities of Aβ. Petanceska et al., J. Neurochem. (1996), vol. 74, pp. 1878-1884. […] With bryostatin, which activates PKC by binding to the diacylglycerol-binding site, the inhibition was biphasic with concentrations of 20 nM or higher producing no net effect. This may be explained by the ability of this class of PKC activators to downregulate PKC when used at high concentrations.
# Aβ [2] = assay: Degradation of exogenously applied Aβ in SH-SY5Y cells; format: cell-based, human; settings: 0.01 μM to 10 μM; 100 nM exogenous Aβ-42; 24 hours
# Method: as §1, §2
# This concentration of Aβ is too low to produce measurable toxicity or cell death. […]
# [3] = test system: SH-SY5Y neuroblastoma cells; assay: Cell survival and proliferation (alamar Blue, CyQuant); format: cell-based, human; settings: alamar Blue and CyQuant staining
# Method: as §2
# TACE = TACE activity in neuronal cells; format: cell-based, human, mouse; settings: SH-SY5Y cells, N2a cells, primary neurons from rat hippocampus
# Method: TACE Assay. TACE was measured by incubating 5 μl cell homogenate, 3 μl buffer (50 mM Tris-HCl 7.4 plus 25 mM NaCl plus 4% glycerol), and 1 μl of 100 μM TACE substrate (Aβz-[…]-DPa) (Calbiochem) for 20 min at 37° C. 1.5-ml polypropylene centrifuge tubes. Jin et al., Anal. Biochem. (2002), vol. 302, pp. 269-275. The reaction was stopped by cooling to 4° C. The samples were diluted to 1 ml and the fluorescence was rapidly measured (ex=320 nm, em=420 nm) in a Spex Fluorolog 2 spectrofluorometer.
# [4] = test system: Endothelin-converting enzyme (ECE); assay: Endothelin-converting enzyme (ECE) activity in neuroblastoma cells; format: cell-based, human; settings: bryostatin 0.27 nM, BR-101 1 μM, BR-111 1 μM
# Method: ECE assay. […] neuroblastoma cells were incubated with bryostatin (0.27 nM), BR-101 (DCP-LA) (1 μM), and BR-111 (DHA-CP6) (1 μM). Endothelin-converting enzyme (ECE) was measured fluorimetrically using the method of Johnson and Ahn (Anal. Biochem. (2000), vol. 286, pp. 112-118). A sample of cell homogenate (20 μl) was incubated in 50 mM MES-KOH, pH 6.0, 0.01% C12E10 (polyoxyethylene-10-lauryl ether), and 15 μM McaBK2 (7-Methoxycoumarin-4-acetyl [Ala7-(2,4-Dinitrophenyl)Lys9]-bradykinin trifluoroacetate salt) (Sigma-Aldrich). After 60 min at 37° C., the reaction was quenched by adding trifluoroacetic acid to 0.5%. The sample was diluted to 1.4 ml with water and the fluorescence was measured at ex=334 nm, em=398 nm.
# protein kinase C = settings: (−)-enantiomer; read-out: potency (EC50); cited from earlier work
Compound,"concentration needed to activate PKC, times lower than for BR-101 (DCP-LA) (PKCε)","effect on purified PKCε (FIG. 7, FIG. 8) (PKCε; preincubated five minutes, radiometric)",levels of intracellular Aβ (Aβ [1]; various concentrations),levels of secreted Aβ (Aβ [1]; various concentrations),concentration dependence of Aβ inhibition (Aβ [1]; fatty acid derivatives up to 10 μM to 100 μM),reduction of cellular levels of Aβ (Aβ [2]),effect on cell survival [3],effect on proliferation [3],TACE activity (TACE),ECE activity [4],EC50 (protein kinase C)
"CCC1CC1CC1CC1CC1CC1CC1CC1CC1CC1CC1CC1CCC(=O)OC (centres unmarked) [BR-111, methyl-3-(2-((2-((2-((2-((2-((2-ethylcyclopropyl)methyl)cyclopropyl)methyl)cyclopropyl)methyl)-cyclopropyl)methyl)cyclopropyl)methyl)cyclopropyl)propanoate]",approximately 100 times,activated,markedly reduced,markedly reduced,monotonically increasing inhibition,45%-63%,no effect,no effect,small increases,sustained increase,
CCCCCCCCc1ccc2c3c(c[nH]c13)C[C@@H](CO)NC(=O)[C@H](C(C)C)N2C [Octylindolactam V],,,,,,,,,,,29 nM

# From US20120027687A1, “FATTY ACID PROTEIN KINASE C ACTIVATORS AND ANTICOAGULANT FOR THE TREATMENT OF STROKE” (priority 2010, published 2012)
